Target: T1, LATS1 (Homo sapiens, UniProt O95835)
T1 sequence (O95835 1-1130): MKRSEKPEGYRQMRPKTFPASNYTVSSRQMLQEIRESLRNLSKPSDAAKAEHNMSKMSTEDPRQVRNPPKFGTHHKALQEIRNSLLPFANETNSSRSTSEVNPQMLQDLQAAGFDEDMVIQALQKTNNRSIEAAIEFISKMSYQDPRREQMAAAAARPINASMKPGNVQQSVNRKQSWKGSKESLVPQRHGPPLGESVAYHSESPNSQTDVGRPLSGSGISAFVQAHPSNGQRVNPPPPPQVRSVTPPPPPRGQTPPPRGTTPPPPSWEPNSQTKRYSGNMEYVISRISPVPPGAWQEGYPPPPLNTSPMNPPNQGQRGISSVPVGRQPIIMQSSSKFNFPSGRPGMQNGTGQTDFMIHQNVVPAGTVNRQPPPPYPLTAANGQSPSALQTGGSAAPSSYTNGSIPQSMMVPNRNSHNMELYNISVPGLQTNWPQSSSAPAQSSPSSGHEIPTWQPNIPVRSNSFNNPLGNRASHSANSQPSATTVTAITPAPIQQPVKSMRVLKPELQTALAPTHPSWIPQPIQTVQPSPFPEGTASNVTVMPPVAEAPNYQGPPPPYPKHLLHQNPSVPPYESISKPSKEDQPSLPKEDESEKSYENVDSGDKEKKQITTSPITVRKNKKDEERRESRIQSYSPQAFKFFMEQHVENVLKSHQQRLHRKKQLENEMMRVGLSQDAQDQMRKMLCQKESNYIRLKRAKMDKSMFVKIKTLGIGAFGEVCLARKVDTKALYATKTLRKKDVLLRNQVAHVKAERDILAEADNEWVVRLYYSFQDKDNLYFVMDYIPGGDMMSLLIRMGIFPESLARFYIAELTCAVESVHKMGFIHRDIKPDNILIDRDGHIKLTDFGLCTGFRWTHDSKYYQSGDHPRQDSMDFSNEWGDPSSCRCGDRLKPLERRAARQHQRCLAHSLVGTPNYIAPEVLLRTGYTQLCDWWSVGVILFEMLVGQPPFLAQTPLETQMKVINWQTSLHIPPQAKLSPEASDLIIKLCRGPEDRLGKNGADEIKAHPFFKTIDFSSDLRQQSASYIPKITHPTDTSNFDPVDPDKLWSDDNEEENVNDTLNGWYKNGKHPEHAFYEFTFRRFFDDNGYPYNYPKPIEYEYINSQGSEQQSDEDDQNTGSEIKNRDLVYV
Test: RBC HotSpot kinase assay (33P-ATP, P81 filter-binding), LATS1
Assay type: biochemical
Settings: Table 28, biochemical kinase assay; read-out: LATS1 IC50
Summary of the method: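 Substrate in fresh buffer receives cofactors, then kinase, then compound in DMSO for a 20 min room-temperature preincubation. Reactions start with 33P-ATP and run 2 h; phosphorylation is read by P81 filter binding, and IC50 comes from a 10-point curve.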

| IC50 | Structure (SMILES) |
| --- | --- |
| 16 nM | C[C@@H]1CNC[C@H](C)[C@@]1(O)c1ccc(-c2ccnc3[nH]cc(F)c23)cc1 [Compound 2, (3R,4s,5S)-4-(4-(3-fluoro-1H-pyrrolo[2,3-b]pyridin-4-yl)phenyl)-3,5-dimethylpiperidin-4-ol] |
| 53 nM | C[C@@H]1CNC[C@H](C)[C@@]1(O)c1ccc(-c2ccnc3[nH]cc(F)c23)nc1 [Compound 8, (3S,4s,5R)-4-(6-(3-fluoro-1H-pyrrolo[2,3-b]pyridin-4-yl)pyridin-3-yl)-3,5-dimethylpiperidin-4-ol] |
| 8.5 nM | C[C@@H]1CNC[C@H](C)[C@@]1(O)c1c(F)cc(-c2ccnc3[nH]cc(F)c23)cc1F [Compound 13] |
| 5.4 nM | C[C@@H]1CNC[C@H](C)[C@@]1(O)c1ccc(-c2ccnc3[nH]cc(F)c23)cc1OC(F)(F)F [Compound 14, (3S,4s,5R)-4-(4-(3-fluoro-1H-pyrrolo[2,3-b]pyridin-4-yl)-2-(trifluoromethoxy)phenyl)-3,5-dimethylpiperidin-4-ol] |
| 10.9 nM | C[C@@H]1CN(Cc2ccccn2)C[C@H](C)[C@@]1(O)c1c(F)cc(-c2ccnc3[nH]cc(F)c23)cc1F [Compound 17, (3S,4s,5R)-4-(2,6-difluoro-4-(3-fluoro-1H-pyrrolo[2,3-b]pyridin-4-yl)phenyl)-3,5-dimethyl-1-(pyridin-2-ylmethyl)piperidin-4-ol] |
| 1.1 nM | C[C@@H]1CN(C)C[C@H](C)[C@@]1(O)c1cnc(-c2ccnc3[nH]cc(F)c23)cc1Cl [Compound 22, (3S,4s,5R)-4-(4-chloro-6-(3-fluoro-1H-pyrrolo[2,3-b]pyridin-4-yl)pyridin-3-yl)-1,3,5-trimethylpiperidin-4-ol] |
| 5.7 nM | Cc1cc(-c2ccnc3[nH]cc(F)c23)ccc1[C@@]1(O)[C@H](C)CN(C2COC2)C[C@@H]1C [Compound 24, (3S,4s,5R)-4-(4-(3-fluoro-1H-pyrrolo[2,3-b]pyridin-4-yl)-2-methylphenyl)-3,5-dimethyl-1-(oxetan-3-yl)piperidin-4-ol] |
| 1.3 nM | Cc1cc(-c2ccnc3[nH]cc(F)c23)ccc1[C@@]1(O)[C@H](C)CN(C(C)C)C[C@@H]1C [Compound 29, (3S,4s, 5R)-4-(4-(3-fluoro-1H-pyrrolo[2,3-b]pyridin-4-yl)-2-methylphenyl)-1-isopropyl-3,5-dimethylpiperidin-4-ol] |
| 5.9 nM | Cc1cc(-c2ccnc3[nH]cc(F)c23)cc(F)c1C1(O)[C@H](C)CN(C2COC2)C[C@@H]1C (stereo partly drawn) [Compound 30, (3S,5R)-4-(2-fluoro-4-(3-fluoro-1H-pyrrolo[2,3-b]pyridin-4-yl)-6-methylphenyl)-3,5-dimethyl-1-(oxetan-3-yl)piperidin-4-ol] |
| 6.7 nM | C[C@@H]1CN(C2CCS(=O)(=O)CC2)C[C@H](C)C1(O)c1c(F)cc(-c2ccnc3[nH]cc(F)c23)cc1F (stereo partly drawn) [Compound 31, 4-((3S,5R)-4-(2,6-difluoro-4-(3-fluoro-1H-pyrrolo[2,3-b]pyridin-4-yl)phenyl)-4-hydroxy-3,5-dimethylpiperidin-1-yl)tetrahydro-2H-thiopyran 1,1-dioxide] |
| 19.5 nM | C[C@@H]1CN(C)C[C@H](C)[C@@]1(O)c1ccc(-c2ccnc3[nH]cc(F)c23)cc1 [Compound 39, (3R,4s,5S)-4-(4-(3-fluoro-1H-pyrrolo[2,3-b]pyridin-4-yl)phenyl)-1,3,5-trimethylpiperidin-4-ol] |
| 61 nM | C[C@@H]1CN(C)C[C@H](C)[C@@]1(O)c1ccc(-c2ccnc3[nH]cc(F)c23)nc1 [Compound 41, (3R,4s,5S)-4-(6-(3-fluoro-1H-pyrrolo[2,3-b]pyridin-4-yl)pyridin-3-yl)-1,3,5-trimethylpiperidin-4-ol] |
| 3.4 nM | C[C@@H]1CN(C2COC2)C[C@H](C)[C@@]1(O)c1c(F)cc(-c2ccnc3[nH]cc(F)c23)cc1F [Compound 45, (3S,4s,5R)-4-(2,6-difluoro-4-(3-fluoro-1H-pyrrolo[2,3-b]pyridin-4-yl)phenyl)-3, S-dimethyl-1-(oxetan-3-yl)piperidin-4-ol] |
| 1.7 nM | C[C@@H]1CN(C2CCC2)C[C@H](C)[C@@]1(O)c1c(F)cc(-c2ccnc3[nH]cc(F)c23)cc1F [Compound 46, (3R,4s,5S)-1-cyclobutyl-4-(2,6-difluoro-4-(3-fluoro-1H-pyrrolo[2,3-b]pyridin-4-yl)phenyl)-3,5-dimethylpiperidin-4-ol] |
| 2.9 nM | Cc1cc(-c2ccnc3[nH]cc(F)c23)ncc1[C@@]1(O)[C@H](C)CN(C2CCC2)C[C@@H]1C [Compound 48, (3R,4s,5S)-1-cyclobutyl-4-(6-(3-fluoro-1H-pyrrolo[2,3-b]pyridin-4-yl)-4-methylpyridin-3-yl)-3,5-dimethylpiperidin-4-ol] |
| 2080 nM | Cc1cc(-c2ccnc3[nH]cc(F)c23)ncc1[C@@]1(O)[C@H](C)CN(C2CCS(=O)(=O)CC2)C[C@@H]1C [Compound 51, 4-((3R,4s,5S)-4-(6-(3-fluoro-1H-pyrrolo[2,3-b]pyridin-4-yl)-4-methylpyridin-3-yl)-4-hydroxy-3,5-dimethylpiperidin-1-yl)tetrahydro-2H-thiopyran 1,1-dioxide] |
| 2.5 nM | Cc1cc(-c2ccnc3[nH]cc(F)c23)ccc1[C@@]1(O)[C@H](C)CN(C2CCC2)C[C@@H]1C [Compound 54, (3R,4s,5S)-1-cyclobutyl-4-(4-(3-fluoro-1H-pyrrolo[2,3-b]pyridin-4-yl)-2-methylphenyl)-3,5-dimethylpiperidin-4-ol] |
| 9 nM | Cc1cc(-c2ccnc3[nH]cc(F)c23)ccc1[C@@]1(O)[C@H](C)CN(C2CCS(=O)(=O)CC2)C[C@@H]1C [Compound 55, 4-((3R,4s, 5S)-4-(4-(3-fluoro-1H-pyrrolo[2,3-b]pyridin-4-yl)-2-methylphenyl)-4-hydroxy-3,5S-dimethylpiperidin-1-yl)tetrahydro-2H-thiopyran 1,1-dioxide] |
| 22 nM | C[C@@H]1CN(C(=O)CN)C[C@H](C)[C@@]1(O)c1c(F)cc(-c2ccnc3[nH]cc(F)c23)cc1F [Compound 58] |
| 8.3 nM | Cc1cc(-c2ccnc3[nH]cc(F)c23)ccc1[C@@]1(O)[C@H](C)CN(C(=O)CN)C[C@@H]1C [Compound 60, 2-amino-1-((3R,4s,5S)-4-(4-(3-fluoro-1H-pyrrolo[2,3-b]pyridin-4-yl)-2-methylphenyl)-4-hydroxy-3,5-dimethylpiperidin-1-yl)ethan-1-one] |
| 2.5 nM | C[C@@H]1CN(CC(N)=O)C[C@H](C)[C@@]1(O)c1c(F)cc(-c2ccnc3[nH]cc(F)c23)cc1F [Compound 88, 2-((3R,4s,5S)-4-(2,6-difluoro-4-(3-fluoro-1H-pyrrolo[2,3-b]pyridin-4-yl)phenyl)-4-hydroxy-3,5-dimethylpiperidin-1-yl)acetamide] |

| Structure (SMILES) | IC50 |
| --- | --- |
| C[C@@H]1CNC[C@H](C)[C@@]1(O)c1ccc(-c2ccnc3[nH]cc(F)c23)cc1Cl [Compound 1, (3S,4S,5R)-4-(2-chloro-4-(3-fluoro-1H-pyrrolo[2,3-b]pyridin-4-yl)phenyl)-3,5-dimethylpiperidin-4-ol] | 11.3 nM |
| C[C@@H]1CNC[C@H](C)[C@@]1(O)c1ccc(-c2ccnc3[nH]cc(F)c23)cc1F [Compound 7, (3S,4s,5R)-4-(2-fluoro-4-(3-fluoro-1H-pyrrolo[2,3-b]pyridin-4-yl)phenyl)-3,5-dimethyl piperidin-4-ol] | 15.9 nM |
| Cc1cc(-c2ccnc3[nH]cc(F)c23)ccc1[C@@]1(O)[C@H](C)CNC[C@@H]1C [Compound 9, (3S,4s,5R)-4-(4-(3-fluoro-1H-pyrrolo[2,3-b]pyridin-4-yl)-2-methylphenyl)-3,5-dimethylpiperidin-4-ol] | 9.4 nM |
| Cc1cc(-c2ccnc3[nH]cc(F)c23)cc(F)c1[C@@]1(O)[C@H](C)CN(C2CCS(=O)(=O)CC2)C[C@@H]1C [Compound 57, 4-((3R,4s,5S)-4-(2-fluoro-4-(3-fluoro-1H-pyrrolo[2,3-b]pyridin-4-yl)-6-methylphenyl)-4-hydroxy-3,5-dimethylpiperidin-1-yl)tetrahydro-2H-thiopyran 1,1-dioxide] | 4.4 nM |
| Cc1cc(-c2ccnc3[nH]cc(F)c23)cc(F)c1[C@@]1(O)[C@H](C)CN(C(=O)CN)C[C@@H]1C [Compound 61, 2-amino-1-((3R,4s,5S)-4-(2-fluoro-4-(3-fluoro-1H-pyrrolo[2,3-b]pyridin-4-yl)-6-methylphenyl)-4-hydroxy-3,5-dimethylpiperidin-1-yl)ethan-1-one] | 3.2 nM |

Reference: patent publication US20250361230A1, “LATS Inhibitors and Uses Thereof” (The USA, as Represented by the Secretary, Dept. of Heath …, priority 2022, published 2025)
